Source: ChEMBL document CHEMBL1201862, “PubChem BioAssay data set” (2004)
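Method: 48-hour compound exposure of cells in 96-well plates, five concentrations, linear interpolation of endpoints. Abbreviation: GI50, concentration required for 50% inhibition of growth.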 Calls of active or inactive are those of the source. No stated cut-off is given here; in the data, active = GI50 up to about 1.1 µM and inactive = higher.

Columns and labels:
Assay in all cases: NCI tumour cell line growth inhibition, 48 h
XF498 = system: XF498
HCT-15 = system: HCT-15
SK-OV-3 = system: SK-OV-3
HOP-92 = system: HOP-92
SN12C = system: SN12C
DLD-1 = system: DLD-1
SNB-19 = system: SNB-19
RXF 393 = system: RXF 393
KM12 = system: KM12
HOP-62 = system: HOP-62
RPMI-8226 = system: RPMI-8226
SNB-75 = system: SNB-75
UACC-257 = system: UACC-257
U-251 = system: U-251
M14 = system: M14
SW-620 = system: SW-620
KM-20L2 = system: KM-20L2
SK-MEL-2 = system: SK-MEL-2
HCT-116 = system: HCT-116
EKVX = system: EKVX
TK-10 = system: TK-10
SF-268 = system: SF-268
DMS-114 = system: DMS-114
HOP-18 = system: HOP-18
MOLT-4 = system: MOLT-4
HCC 2998 = system: HCC 2998
NCI-H23 = system: NCI-H23
A549 = system: A549
OVCAR-5 = system: OVCAR-5
HT-29 = system: HT-29
SF-295 = system: SF-295
ACHN = system: ACHN
COLO 205 = system: COLO 205
CAKI-1 = system: CAKI-1
UACC-62 = system: UACC-62
UO-31 = system: UO-31
NCI-H460 = system: NCI-H460
SF-539 = system: SF-539
A498 = system: A498
OVCAR-3 = system: OVCAR-3
LXFL 529 = system: LXFL 529
RXF 631 = system: RXF 631
K562 = system: K562
NCI-H522 = system: NCI-H522
Malme-3M = system: Malme-3M
IGROV-1 = system: IGROV-1
OVCAR-4 = system: OVCAR-4
SK-MEL-28 = system: SK-MEL-28
DMS-273 = system: DMS-273
786-0 = system: 786-0
LOX IMVI = system: LOX IMVI
OVCAR-8 = system: OVCAR-8
M19-MEL = system: M19-MEL
SK-MEL-5 = system: SK-MEL-5
HL-60 = system: HL-60
NCI-H226 = system: NCI-H226
SNB-78 = system: SNB-78
SR = system: SR
CCRF-CEM = system: CCRF-CEM

Measured: GI50

CCNC(=O)O/N=C1\CCC2[C@@H]3CC=C4C[C@@H](OC(=O)NCC)CC[C@]4(C)C3CC[C@]12C (stereo partly specified)
active: XF498 0.0792 µM | SNB-19 0.495 µM | UACC-257 0.422 µM | HCT-116 0.57 µM | EKVX 0.735 µM | DMS-114 0.358 µM | MOLT-4 1.05 µM | NCI-H23 1.08 µM | SF-295 0.971 µM | COLO 205 0.387 µM | UACC-62 0.951 µM | LXFL 529 1.01 µM | K562 0.769 µM | Malme-3M 0.267 µM | LOX IMVI 0.537 µM | SK-MEL-5 0.807 µM
inactive: SK-OV-3 7.82 µM | HOP-92 3.08 µM | SN12C 2.65 µM | DLD-1 6.71 µM | RXF 393 3.42 µM | KM12 2.9 µM | HOP-62 22.3 µM | RPMI-8226 1.46 µM | SNB-75 2.69 µM | U-251 2.09 µM | M14 1.31 µM | SW-620 3.61 µM | KM-20L2 2.44 µM | SK-MEL-2 2.13 µM | TK-10 1.77 µM | SF-268 2.94 µM | HOP-18 1.7 µM | HCC 2998 4.68 µM | A549 2.16 µM | OVCAR-5 2.58 µM | HT-29 2.86 µM | ACHN 1.38 µM | CAKI-1 1.88 µM | UO-31 1.21 µM | NCI-H460 1.83 µM | SF-539 8.95 µM | A498 22.3 µM | OVCAR-3 2.21 µM | RXF 631 4.26 µM | NCI-H522 1.57 µM | IGROV-1 4.43 µM | OVCAR-4 1.55 µM | SK-MEL-28 3.19 µM | DMS-273 1.22 µM | 786-0 2.91 µM | OVCAR-8 4.03 µM | M19-MEL 1.65 µM
2.15 µM: HCT-15

O=C(Nc1ccccc1[N+](=O)[O-])C(=O)C(C(=O)c1ccccc1-c1ccccc1)C1OC(=O)c2ccccc21 (stereo unspecified)
15.9 µM: HCT-15
inactive: SK-OV-3 30.8 µM | SN12C 14.6 µM | DLD-1 21.4 µM | SNB-19 13.6 µM | RXF 393 12.1 µM | KM12 16.2 µM | HOP-62 17.5 µM | HL-60 14.7 µM | RPMI-8226 18.5 µM | SNB-75 16.9 µM | UACC-257 16.6 µM | NCI-H226 6.1 µM | SNB-78 20.1 µM | U-251 11.6 µM | M14 15.5 µM | SW-620 18.5 µM | KM-20L2 18.2 µM | SK-MEL-2 16.7 µM | HCT-116 18.2 µM | EKVX 20.2 µM | TK-10 24 µM | SF-268 14.3 µM | DMS-114 13.6 µM | HOP-18 14.1 µM | MOLT-4 16 µM | HCC 2998 14.8 µM | NCI-H23 17.9 µM | A549 24.5 µM | OVCAR-5 20.3 µM | SR 8.43 µM | HT-29 24 µM | SF-295 16.6 µM | ACHN 30.8 µM | COLO 205 16.1 µM | CAKI-1 35.6 µM | UACC-62 16 µM | UO-31 15.6 µM | NCI-H460 15.9 µM | SF-539 11.6 µM | A498 21.7 µM | OVCAR-3 14 µM | LXFL 529 11 µM | RXF 631 13.4 µM | K562 17.2 µM | NCI-H522 12.5 µM | Malme-3M 13 µM | IGROV-1 23.7 µM | OVCAR-4 24.1 µM | SK-MEL-28 18.2 µM | CCRF-CEM 13.5 µM | DMS-273 14.3 µM | 786-0 14.7 µM | LOX IMVI 16.3 µM | OVCAR-8 14.8 µM | M19-MEL 12.6 µM | SK-MEL-5 18 µM
